The subject of data set [1] is Jurkat cell. The experiment in a line: Inhibition of Jurkat cell proliferation (CTG, intracellular ATP). The class given is cell-based. The settings on record: Homo sapiens, 72 h, compared to DMSO group, read-out: Inhibitory activity against Jurkat cell proliferation (IC50). How it is done:
(§1) Jurkat or 293T cells were seeded into a 96-well plate at 3000 cells/well. After overnight adherence culture, the serially diluted compound in DMSO was added. After 72 h, the intracellular ATP level was determined by CTG. The IC50 for the inhibition of cell proliferation by the compounds was calculated compared to the DMSO group. Table 8. Inhibitory activity of compounds of the present disclosure against Jurkat/293T cell proliferation (IC50, µM)

Data set [2] concerns HeLa cells. The experiment in a line: Intracellular acetyl lysine / H3K 27 acetyl lysine level by ELISA. The class given is cell-based. The settings on record: 24 h of treatment. How it is done:
HeLa cells were seeded into a 96-well plate at 20000 cells/well. After overnight adherence culture, the serially diluted compound was added. After 24 h of treatment, intracellular levels of acetyl lysine and H3K 27 acetyl lysine were quantified by ELISA. Table 9. Effect of compound of the present disclosure on levels of acetyl lysine and H3K 27 acetyl lysine
A general note: ELISA stands for enzyme-linked immunosorbent assay.

Data set [3] deals with Mouse colon cancer CT-26 cells. The data set is described as follows: In vivo efficacy in CT-26 model. On the set-up: species or system BALB/c mice. The settings on record: small molecules 15mg/kg PO QD, PD-1 1mg/kg IV QW, BDO 2mg/kg IP QW, 21 days. How it is done: (§2) Female BALB/c mice (aged 6 weeks, 18-22 g) were provided by Vital River Laboratory Animal Technology Co., Ltd. (China) and used one week after quarantine and acclimation. All animals were kept in a room at 23±2 °C with a relative humidity of 50±5%, artificial lighting was provided from 08:00 to 20:00 every day, and the air was exchanged 13-18 times per hour. Mouse colon cancer CT-26 cells were cultured conventionally in 1640 medium containing 10% fetal bovine serum in an incubator at 37 °C with 5% CO2. After being subcultured, the cells were collected when they reached the desired amount. The BALB/c mice were subcutaneously injected with 2 × 10^5 CT-26 cells on the right side to form tumors. After the tumors grew to about 100 mm^3, the animals were randomly grouped for administration. Tumor volumes were measured with a caliper on day 3, day 7, day 10, day 14, day 17, and day 21 after the administration. […] The toxicity of the compounds was evaluated according to the body weight and state of the mice.
Table 16. In vivo efficacy of some of the compounds of the present disclosure in CT-26 model

Data set [4] deals with 293T cell. The data set is described as follows: Inhibition of 293T cell proliferation (CTG, intracellular ATP). The class given is cell-based. The settings on record: Homo sapiens, HEK-293T, 72 h, compared to DMSO group, read-out: Inhibitory activity against 293T cell proliferation (IC50). How it is done: as §1
A short description of data set [5]: Pharmacokinetic experiment in mice. The class given is in vivo, CD-1 female mice. The settings on record: female, CD-1, mouse, plasma. How it is done: CD-1 female mice aged 7 to 10 weeks were intravenously administered and orally administered at doses of 1 mg/kg and 10 mg/kg, respectively. The mice were fasted for at least 12 h before the administration and given food 4 h after the administration, and they were given ad libitum access to water during the experiment.
On the day of the experiment, animals in the intravenous group were given the corresponding compound by single injection via the tail vein at an administration volume of 10 mL/kg; and animals in the oral group were given the corresponding compound by single intragastric injection at an administration volume of 10 mL/kg. The animals were weighed before administration, and the administration volume was calculated according to the body weight. The sample collection time points were 0.083 h, 0.167 h, 0.5 h, 1 h, 2 h, 4 h, 8 h, and 24 h. About 200 µL of whole blood was collected through the orbital venous plexus at each time point and used to prepare plasma for concentration determination by high-performance liquid chromatography-tandem mass spectrometry (LC-MS/MS). The plasma concentrations were processed using a non-compartmental model of Winnolin pharmacokinetic software, and the pharmacokinetic parameters were calculated using a linear-log trapezoidal method. Table 13. Results of in vivo pharmacokinetic evaluation of compounds of the present disclosure

Data set [6] concerns OVCAR 3 cells. The experiment in a line: NK cell-mediated tumor cell killing (NK92 cells, GFP count). The settings on record: Homo sapiens, 72 h compound, 1-4 h co-culture, compared to DMSO group, read-out: EC50 in promoting the NK92 cell-mediated OVCAR 3 cell death. The class given is cell-based. How it is done:
OVCAR 3 cells […] expressing GFP were seeded into a 96-well plate at 4000 cells/well. After overnight adherence culture, the serially diluted compounds were added, and the plate was incubated for another 72 h. After the two types of cells were mixed and cultured for another 1-4 h, NK92 cells were removed by washing with PBS, and adherent GFP-positive tumor cells were counted. The EC50 of the compounds in promoting the NK92 cell-mediated OVCAR 3 cell death was calculated compared to the DMSO group. Table 11. NK cell-mediated tumor cell killing by compounds of the present disclosure

In data set [7] the test system is Mouse colon cancer MC38 cells. The data set is described as follows: In vivo efficacy in MC-38 model. The settings on record: small molecules 15mg/kg PO QD, PD-1 1mg/kg IV QW, BDO 2mg/kg IP QW, 21 days. On the set-up: species or system C57BL6N mice. How it is done:
as §2, with “C57BL6N” for “BALB/c”, “MC38” for “CT-26”, “10^6 MC38” for “10^5 CT-26”
Table 15. In vivo efficacy of some of the compounds of the present disclosure in MC-38 model

The mark [8] stands for this setting: Injection (1 mg/kg), intravenous.

The structures appear in SMILES notation. A value given as a limit tells only on which side of the number the result lay.

Broadly, the AUC(0-t) is exposure summed from dosing to a finite time, without extrapolation to infinity. Low values mean low exposure, high ones high exposure. Usually clearance stands for a measure of how efficiently the substance is removed, as volume per time. Higher therefore signals a high capacity for elimination. By half-life is commonly meant how long it takes for the measured level to halve. Low values mean fast loss, high ones slow loss. As usually defined, the Cmax is the highest concentration seen after dosing. For orientation: Tmax means the time at which the peak concentration occurs. Usually bioavailability stands for the share of a dose that reaches the circulation, judged against a reference dose that is usually intravenous. A higher bioavailability goes with much systemic uptake. In general, EC50 refers to the concentration needed to bring the measured effect to its halfway point. For `[2H]c1cc(NC(=O)c2ccc(CNC(=O)/C=C/c3cccnc3)cc2)c(N)cc1F` [Compound 1, (E)-N-(2-amino-4-fluorophenyl-5-d)-4-((3-(pyridin-3-yl)acrylamido)methyl)benzamide], the IC50 in data set [1] stood at 860 nM. In data set [2], the “Acetyl lysine Maximum (%)” value turned out to be 430%, the “Acetyl lysine Minimum effective concentration” value is 16 nM, the “H3K 27 Acetyl lysine Maximum (%)” value worked out at 360% and the “H3K 27 Acetyl lysine Minimum effective concentration” value was 80 nM. For the same molecule, the “Change in body weight” value in data set [3] is on record as “+17.6%”. Moreover, the “TGI(%)” value in data set [3] (6 mice per group) is listed as 35.7%. Further, in data set [4], the IC50 is more than 10000 nM. Further, in data set [5] (setting [8]), the exposure AUC(0-t) worked out at 401 ng·h/mL, the clearance worked out at 41.5 mL/min/kg and the half-life was 2.41 h. The Vd in data set [5] (Injection (1 mg/kg), intravenous, read-out: Vdss) came out at 2.19 L/kg. Moreover, in data set [5] (Oral administration (10 mg/kg)), the AUC(0-t) turned out to be 1890 ng·h/mL, the peak level (Cmax) was 3450 ng/mL, the time of peak concentration (Tmax) is 4.8 min and the bioavailability turned out to be 45.3%. Moreover, the half-life in data set [5] (Oral administration (10 mg/kg)) is 2.76 h. In addition, in data set [6], the EC50 stood at 43.9 nM. The “Change in body weight” value in data set [7] was “+17.6%”. The “TGI(%)” value in data set [7] (6 mice per group) was determined as 35.7%.

Values taken from patent EP4631931A1, “HDAC INHIBITOR AND USE THEREOF” (Wigen Biomedicine Technology (Shanghai) Co., Ltd., priority 2022, dated 2024).
